Assay results taken from PubChem BioAssay AID1918954 (Molecular Pharmacology Branch, DTP, NCI, 2023).
Several values for one entry are separate records, joined by “and”; a condition that tells them apart may be missing. Identical values can stand only once.

Tested on: MDA-MB-468 complex spheroids with HUVEC/MSC, viability
Assay: Anticancer human tumor MDA-MB-468 cell line growth inhibition;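 note: spheroids exposed to agents for seven days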;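 for viability, T/C: 100% = DMSO vehicle control viability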
Details: for viability, T/C: stronger effect = lower value
Excerpt: Multicellular complex tumor spheroid response to LSD1 Inhibitor Iadademstat in combination with a variety of drugs and investigational agents in selected tumor cell lines
The current study was undertaken to assess response to LSD1 inhibitors in combination with standard-of-care drugs and investigational agents in solid tumor complex spheroid models as well as in the K-562 leukemia. Complex spheroids include a stromal component modeled by human endothelial cells (HUVEC) and fibroblasts modeled by human mesenchymal stem cells (MSCs). The concentration ranges selected for each drug and investigational agent were based upon clinically achievable concentrations if the clinical Cmax of the agent was known.
Compounds. The drugs and investigational agents used in this study are listed on Table 1. All of the agents used, including staurosporine (NSC755774) and gemcitabine (NSC613327), were obtained from the Developmental Therapeutics Program, NCI. FDA-approved anticancer drugs are available from the NCI at http://dtp.nci.nih.gov/branches/dscb/oncology_drugset_explanation.html. Drugs and investigational agents were >95% pure by proton nuclear magnetic resonance (NMR) and liquid chromatography/mass spectrometry (LC/MS). Stock solutions were prepared at 400x in DMSO, stored at -70 degrees C, and diluted in fresh medium prior to their use. The final concentration of DMSO in cell culture wells never exceeded 0.25% (v/v). The FDA-approved anticancer drug set is available from the Developmental Therapeutics Program at https://dtp.cancer.gov/organization/dscb/obtaining/available_plates.htm. All drugs and investigational agents were tested over a range starting from a high concentration at or near the clinical Cmax and decreasing in half-log increments. If the clinical Cmax for an agent had not been determined, the highest concentration tested was 10 microM.
Cell Lines. The patient-derived cancer cell (PDC) lines: 292921-168-R-J2-PDC, K24384-001-R-PDC, and 521955-158-R2-J5-PDC pancreatic carcinomas, 556581-035-R-J1 ovarian carcinoma, 324938-238-R-J1-PDC, 855422-203-R-J1-PDC and 883617-216-R-J1-PDC urothelial bladder carcinomas, 743489-274-T-PDC renal cell carcinoma, 138582-R-J1 Merkel cell tumor, K60290-347-R-J1 and K57222-313-R-J1-PDC glioblastomas, 653999-131-R-J2-PDC, LG0703-F948-PDC, and 349418-098-R-PDC non-small cell lung carcinomas, 885512-296-R-J2-PDC, 171881-019-R-J1-PDC breast carcinomas and 186277-243-T-J2-PDC and 233499-124-R-J2-PDC colon carcinomas were obtained from the NCI Patient-Derived Models Repository (PDMR, https://pdmr.cancer.gov). The established cell lines NCI/ADR-RES (RRID:CVCL_14520 and OVCAR-5 (RRID:CVCL_1628) ovarian carcinomas, 786-O (RRID:CVCL_1051) and A498 (RRID:CVCL_A498) renal cell carcinoma, NCI-H211 (ATCC, cat. CRL-5824; RRID:CVCL_1529), NCI-H196 (ATCC, cat. CRL-5823, RRID:CVCL_1509), SW 1271 (ATCC, cat. CRL-2177, RRID:CVCL_1716) and NCI-H1876 (ATCC, cat. CRL-5902, RRID:CVCL_1503) small cell lung carcinomas, MDA-MB-231 (RRID:CVCL_0062) and MDA-MB-468 (RRID:CVCL_0419)breast carcinomas (10-12). Pooled donor human umbilical vein endothelial cells (HUVEC, Lonza, cat. CC-2519) and human mesenchymal stem cells (hMSC, Lonza, cat. PT-2501) were purchased from Lonza (Walkersville, MD).
Cell Culture. All cells were maintained in an incubator at 37 degrees C and 5% CO2 with 95% humidity. The PDC lines were cultured according to standard operating procedures established by the NCI PDMR (https://pdmr.cancer.gov). Briefly all PDCs were thawed and cultured in Matrigel-coated flasks prepared with a working solution of 1X Ham's F-12 nutrient mix, without supplementation (Invitrogen, Waltham, MA, cat. 11765054), 100 U/mL penicillin-streptomycin (Invitrogen, cat. 15140122), and 2.5% Matrigel (Corning Inc., Corning, NY, cat. 354248) for the first three passages. […]

| Compound | viability, T/C (compound 0.00316 µM) | viability, T/C (compound 0.01 µM) | viability, T/C (compound 0.0316 µM) | viability, T/C (compound 0.1 µM) | IC50 (curve of compound) | viability, T/C (compound 0.316 µM) | viability, T/C (compound 1 µM) | viability, T/C (compound 0.00949 µM) | viability, T/C (compound 0.03 µM) | viability, T/C (compound 0.0949 µM) | viability, T/C (compound 0.3 µM) | also measured |
| --- | --- | --- | --- | --- | --- | --- | --- | --- | --- | --- | --- | --- |
| CC(C)CC(NC(=O)C(Cc1ccccc1)NC(=O)c1cnccn1)B(O)O (stereo not given) | 0.95% and 0.15% | 1.2% and 0.15% | 1.22% and 0.17% | 1.51% and 0.22% | 0.684 nM and < 0.316 nM | – | – | – | – | – | – | – |
| CC(C)CC(NC(=O)CNC(=O)c1cc(Cl)ccc1Cl)B1OC(=O)CC(CC(=O)O)(C(=O)O)O1 (stereo not given) | 55.3% and 42.1% | 11.1% and 5.88% | 1.51% and 0.31% | 1.72% and 0.22% | 3.43 nM and 2.67 nM | – | – | – | – | – | – | viability, T/C (compound 0.000316 µM): 109%; viability, T/C (compound 0.001 µM): 90.5% and 96.4% |
| CC(C)c1c(-c2ccccc2)nc2c(C#N)c[nH]n2c1=O | – | – | 111% and 87.3% | 101% and 89.5% | > 10000 nM | 91.4% and 78.7% | 101% and 96.7% | – | – | – | – | viability, T/C (compound 3.16 µM): 92% and 101%; viability, T/C (compound 10 µM): 72.1% and 88.9% |
| CC1(C)CCC(CN2CCN(c3ccc(C(=O)NS(=O)(=O)c4ccc(NCC5CCOCC5)c([N+](=O)[O-])c4)c(Oc4cnc5[nH]ccc5c4)c3)CC2)=C(c2ccc(Cl)cc2)C1 | – | – | 93.2% and 90.6% | 102% and 95.5% | 6600 nM and 1880 nM | 101% and 85.6% | 91.7% and 74% | – | – | – | – | viability, T/C (compound 3.16 µM): 70.5% and 30.9% |
| CC1COCCN1c1cc(-c2ccnn2C)c2ccnc(-c3ccn[nH]3)c2n1 (stereo not given) | 81.2% and 38.9% | 54.9% and 37.5% | 35.7% and 19.3% | 27% and 8.03% | 13.7 nM and < 3.16 nM | 15.8% and 5.94% | 12.2% and 2.35% | – | – | – | – | – |
| CC1COCCN1c1cc(C2(S(C)(=N)=O)CC2)nc(-c2ccnc3[nH]ccc23)n1 (stereo not given) | – | – | 101% and 78.9% | 67.4% and 88.1% | 282 nM and 835 nM | 50.6% and 66.4% | 30.4% and 46% | – | – | – | – | viability, T/C (compound 3.16 µM): 21.9% and 24.2%; viability, T/C (compound 10 µM): 11.6% and 9.82% |
| CCN(c1cc(-c2ccc(CN3CCOCC3)cc2)cc(C(=O)NCc2c(C)cc(C)[nH]c2=O)c1C)C1CCOCC1 | – | – | – | – | > 3000 nM and 441 nM | – | – | 81.6% and 96.5% | 100% and 76.8% | 118% and 74.4% | 92.3% and 50.2% | viability, T/C (compound 0.949 µM): 92.2% and 44%; viability, T/C (compound 3 µM): 75.7% and 24.5% |
| CC[C@@]1(O)C(=O)OCc2c1cc1n(c2=O)Cc2cc3c(CN(C)C)c(O)ccc3nc2-1 | 16.9% and 14% | 10.4% and 12.7% | 7.18% and 6.23% | 7.59% and 4.68% | 0.662 nM and 1.14 nM | – | – | – | – | – | – | viability, T/C (compound 0.000316 µM): 69% and 95.9%; viability, T/C (compound 0.001 µM): 39.5% and 54.5% |
| CCc1c2c(nc3ccc(O)cc13)-c1cc3c(c(=O)n1C2)COC(=O)[C@]3(O)CC | – | – | – | – | < 0.949 nM | – | – | 5.45% and 2.28% | 2.45% and 0.63% | 2.17% and 0.53% | 2.73% and 0.59% | viability, T/C (compound 0.000949 µM): 7.07% and 5.35%; viability, T/C (compound 0.003 µM): 7.03% and 4.74% |
| COc1cc(C2c3cc4c(cc3C(OC3OC5COC(C)OC5C(O)C3O)C3COC(=O)C23)OCO4)cc(OC)c1O (stereo not given) | – | – | – | – | 87.8 nM and 52.4 nM | – | – | 79% and 92.3% | 76.9% and 70.8% | 48.1% and 27.1% | 15.1% and 15% | viability, T/C (compound 0.949 µM): 14.4% and 10%; viability, T/C (compound 3 µM): 10.4% and 4.22% |
| COc1cc(Nc2ncc3c(n2)-c2ccc(Cl)cc2C(c2c(F)cccc2OC)=NC3)ccc1C(=O)O | 69.6% and 17.2% | 28.3% and 7.92% | 17.4% and 5.89% | 8.67% and 6.08% | 5.54 nM and < 3.16 nM | 7.8% and 4.66% | 7.38% and 3% | – | – | – | – | – |
| COc1ccc([C@@H](O)c2cc(-c3ncnc4cc(N5CCOCC5)ccc34)c(F)cc2Cl)nn1 | – | – | 91.7% and 90.3% | 86.8% and 90.4% | 1480 nM and 1130 nM | 82.5% and 71.8% | 58.3% and 51% | – | – | – | – | viability, T/C (compound 3.16 µM): 32.1% and 29.9%; viability, T/C (compound 10 µM): 14% and 6.59% |
| Cn1ncnc1C1c2n[nH]c(=O)c3cc(F)cc(c23)NC1c1ccc(F)cc1 (stereo not given) | 77.2% and 65.3% | 72% and 75% | 61.2% and 64.5% | 60.7% and 50.9% | > 100 nM | – | – | – | – | – | – | viability, T/C (compound 0.000316 µM): 103% and 96.9%; viability, T/C (compound 0.001 µM): 86.7% and 79.6% |
| NC1CC1c1ccc(-c2cccc(O)c2)cc1 (stereo not given) | – | – | – | – | – | – | – | – | – | – | – | IC50 (compound alone, run of 02/01/2022): > 10000 nM |
| NC1CCC(NC2CC2c2ccccc2)CC1 (stereo not given) | – | – | – | – | – | 96.4% and 88.1% and 98.6% | – | – | – | – | – | IC50 (compound alone, run of 01/24/2022): > 10000 nM and 9570 nM |
| NS(=O)(=O)OCC1CC(n2ccc3c(NC4CCc5ccccc54)ncnc32)CC1O (stereo not given) | – | – | – | – | 31.5 nM and 12 nM | – | – | 67.5% and 55.7% | 52.1% and 28.4% | 19.3% and 11.1% | 12.9% and 5.49% | viability, T/C (compound 0.949 µM): 6.45% and 3.24%; viability, T/C (compound 3 µM): 3.84% and 2.08% |
| Nc1ccccc1NC(=O)c1ccc(CNC(=O)OCc2cccnc2)cc1 | – | – | – | – | 145 nM and 74.3 nM | – | – | 98.7% and 100% | 99.5% and 103% | 70.2% and 36.1% | 14.8% and 2.86% | viability, T/C (compound 0.949 µM): 3.01% and 0.37%; viability, T/C (compound 3 µM): 1.7% and 0.2% |
| Nc1ccn(C2OC(CO)C(O)C2(F)F)c(=O)n1 (stereo not given) | – | – | – | – | < 0.949 nM | – | – | 5.5% and 5.58% | 5.68% and 4.46% | 5.72% and 4.42% | 5.93% and 4.29% | viability, T/C (compound 0.003 µM): 6.32% and 18.5% |
| Nc1ncn(C2CC(O)C(CO)O2)c(=O)n1 (stereo not given) | 81.4% and 94.2% | 59.5% and 67% | 23.6% and 31.2% | 15% and 14.6% | 13.6 nM and 17.3 nM | 12.6% and 11% | 12% and 8.85% | – | – | – | – | – |
| Nc1ncn(C2CC(O)C(CO)S2)c(=O)n1 (stereo not given) | – | – | – | – | 120 nM and 35.5 nM | – | – | 75.2% and 70.6% | 73.4% and 52% | 53.9% and 36.5% | 34.9% and 20.4% | viability, T/C (compound 0.000949 µM): 79.6% and 100%; viability, T/C (compound 0.003 µM): 74.9% and 93.2% |
| O=C(C=Cc1cccc(S(=O)(=O)Nc2ccccc2)c1)NO | – | – | – | – | 75.6 nM and 52 nM | – | – | 80.6% and 78.8% | 72.8% and 67.2% | 44.4% and 25.1% | 17.5% and 2.5% | viability, T/C (compound 0.949 µM): 4.34% and 0.22% |
| O=C(C=Cn1cnc(-c2cc(C(F)(F)F)cc(C(F)(F)F)c2)n1)NNc1cnccn1 | 39.9% and 36.5% | 29.8% and 27.9% | 8.39% and 16.7% | 3.01% and 3.24% | < 3.16 nM | 2.33% and 1.39% | 1.59% and 0.94% | – | – | – | – | – |
| O=C(c1cc(Cc2n[nH]c(=O)c3ccccc23)ccc1F)N1CCN(C(=O)C2CC2)CC1 | – | – | 94.3% and 76.8% | 73.5% and 79.1% | 989 nM and 1050 nM | 75% and 69.3% | 52.9% and 52.6% | – | – | – | – | viability, T/C (compound 3.16 µM): 21.7% and 20.2%; viability, T/C (compound 10 µM): 22.6% and 21.4% |
